One experiment concerns the target T1, X/β5 (Homo sapiens, UniProt P20618+P28074).
T1 construct: purchased R&D Systems
Kind of experiment: Proteasome activity assay, purified 20S proteasome, Ac-WLA-AMC. The format is biochemical. As for the experimental part:
Purified 20S human proteasomes (CP and IP, R&D Systems) were used to assess the in vitro inhibition of proteasome catalytic activity by LMP2 inhibitors. In our 96-well format assays involving a 100 μL total volume, 20S proteasomes (0.5 μg/mL) were incubated with inhibitors or reference compounds (e.g., carfilzomib) in assay buffer (20 mM Tris-HCl, 0.5 mM EDTA, 0.035% SDS) at room temperature for 30 min. Reactions were initiated by the addition of fluorogenic substrates containing the AMC (7-amino-4-methylcoumarin) group. Specifically, the following substrates were used: Suc-LLVY-AMC (CT-L activity, 100 μM), Ac-PAL-AMC (LMP2, 100 μM), Ac-WLA-AMC (β5, 20 μM), Ac-nLPnLD-AMC (β1,100 μM), Ac-RLR-AMC (β2/2i, 20 μM), and Ac-ANW-AMC (β5i, 100 μM). The fluorescence of liberated AMC was measured over a period of 90 min at 360 and 460 nm on a SpectraMax M5 fluorescence plate reader (Molecular Devices). For the proteasome activity of brain tissues isolated from AD mice, tissues were homogenized in RIPA buffer (50 mM Tris Cl, pH 7.4, 150 mM NaCl, 5 mM EDTA, 1% Nonidet P-40, 1% sodium deoxycholate, 0.1% SDS, 1% aprotinin, 50 mM NaF) and sonicated. Samples were centrifuged for 40 min at 14,000×g (4° C.). Protein concentration was determined using the Bradford Assay according to the manufacturer's protocol. […] Fluorescence was recorded for 90 min using a Synergy-HT (Bio Tek) plate reader.

For experiment [1], the system named is Chymotrypsin-like activity (β5/β5i). Kind of experiment: Proteasome inhibitory activity, subunit-specific cell lysate IC50, chymotrypsin-like activity. It is filed as biochemical.
Another experiment addresses T2, LMP7/β5i (Homo sapiens, UniProt P20618+P28062).
T2 construct: purchased R&D Systems
Nature of the experiment: Proteasome activity assay, purified 20S proteasome, Ac-ANW-AMC. It is filed as biochemical. As for the experimental part:
(§1) Purified 20S human proteasomes (CP and IP, R&D Systems) were used to assess the in vitro inhibition of proteasome catalytic activity by LMP2 inhibitors. […] Reactions were initiated by the addition of fluorogenic substrates containing the AMC (7-amino-4-methylcoumarin) group. Specifically, the following substrates were used: Suc-LLVY-AMC (CT-L activity, 100 μM), Ac-PAL-AMC (LMP2, 100 μM), Ac-WLA-AMC (β5, 20 μM), Ac-nLPnLD-AMC (β1,100 μM), Ac-RLR-AMC (β2/2i, 20 μM), and Ac-ANW-AMC (β5i, 100 μM). The fluorescence of liberated AMC was measured over a period of 90 min at 360 and 460 nm on a SpectraMax M5 fluorescence plate reader (Molecular Devices). For the proteasome activity of brain tissues isolated from AD mice, tissues were homogenized in RIPA buffer (50 mM Tris Cl, pH 7.4, 150 mM NaCl, 5 mM EDTA, 1% Nonidet P-40, 1% sodium deoxycholate, 0.1% SDS, 1% aprotinin, 50 mM NaF) and sonicated. Samples were centrifuged for 40 min at 14,000×g (4° C.). Protein concentration was determined using the Bradford Assay according to the manufacturer's protocol. Finally, samples were loaded onto a 96-well plate followed by the addition of the substrate (Ac-PAL-AMC) at 37° C. Fluorescence was recorded for 90 min using a Synergy-HT (Bio Tek) plate reader.

The target of experiment [2] is T3, LMP2/β1i (Homo sapiens, UniProt P28065+P40306). Nature of the experiment: Proteasome activity assay, purified 20S proteasome, Ac-PAL-AMC. The format is biochemical. Also on record: purchased R&D Systems. How it is done: as §1
Experiment [3] has as its target T3, LMP2/β1i. Nature of the experiment: Proteasome inhibitory activity, subunit-specific cell lysate IC50, LMP2. The settings on record: read-out: Subunit-Specific Cell lysate IC50, LMP2 (β1i). It is filed as biochemical. The arrangement: Subunit-Specific Cell lysate IC50 (μM); endogenous in cells.
Experiment [4] deals with APPsw transgenic mouse (Tg2576) and LPS-induced mice (ICR strain). Kind of experiment: Morris water maze test in AD mouse models. The format is in vivo. The settings on record: FIG. 12A-12D. As for the experimental part: These two compounds were used to investigate the impacts of LMP2 inhibition on cognitive deficits in two animal models of human Alzheimer's disease (AD). In these AD models, AD develops by Aβ deposition (APPsw transgenic mouse) or lipopolysaccharide (LPS)-induced neuroinflammation. For the APPsw transgenic model, also known as Tg2576, 10-month old APPsw mice were treated i.p. with LMP2 inhibitors twice a week for 3 weeks. […] Once treatments were finished, Morris water maze test was performed. All mice were trained for three times a day for 5 days before the test. The escape latency and distance traveled were recorded on a daily-basis over a 5-day period. […] This supports that the efficacy of LMP2 inhibitors is mediated through LMP2 inhibition. One day after the completion of Morris water maze test, the ability of mouse to maintain memory was evaluated by probe trials. […] Sequentially, a step-through latency test was performed a day after the probe trial. […]
The learning trials were conducted over 5 days, with 4 trials per day, with three randomized starting points. […] Swimming pattern of each mouse was monitored and recorded by a camera mounted above the center of the pool, and the escape latency, escape distance and swimming speed were assessed by the SMART-LD program (Panlab, Spain). […]

Where only a bound is given, the exact number is not on record here.

The term IC50 denotes the concentration at which inhibition is half-maximal. On to `CC(C)C[C@H](NC(=O)[C@H](Cc1ccccc1)NC(=O)[C@@H]1CCCN1C(=O)CNC(=O)c1cnccn1)C(=O)[C@@]1(C)CO1` [Analogue 16], for which the IC50 on X/β5 was more than 10000 nM; in experiment [1], more than 10000 nM; on LMP7/β5i it was more than 10000 nM; at LMP2/β1i [2] it was 70 nM; on LMP2/β1i [3], 80 nM. Besides, the “cognitive deficits in the APPsw mice” value in experiment [4] is on record as “ameliorates cognitive deficits”.

The values above are taken from patent publication US20190161516A1, “PROTEASOME INHIBITORS” (University of Kentucky Research Foundation, priority 2017, published 2019).
